Columns and labels:
NS3/4A BMS strain = target: T1, NS3/4A BMS strain (UniProt P27958, C1454S/C1711G, species not given/STRAIN_BMS); experiment: Recombinant HCV NS3/4A protease complex FRET peptide assay, BMS strain; format: biochemical, HCV genotype 1a; details: read-out: IC50 against the NS3/4A BMS strain in the enzyme assay
T1 construct: fused on or other part: Three-lysine solubilising tail at the C-terminus of NS4A
From the text: (§1) Recombinant HCV NS3/4A Protease Complex FRET Peptide Assay
(§2) The purpose of this in vitro assay was to measure the inhibition of HCV NS3 protease complexes, derived from the BMS, H77C or J416S strains, as described below, by compounds of the present invention. This assay provides an indication of how effective compounds of the present invention would be in inhibiting HCV proteolytic activity.
(§3) Serum from an HCV-infected patient was obtained from Dr. T. Wright, San Francisco Hospital. An engineered full-length cDNA (compliment deoxyribonucleic acid) template of the HCV genome (BMS strain) was constructed from DNA fragments obtained by reverse transcription-PCR (RT-PCR) of serum RNA (ribonucleic acid) and using primers selected on the basis of homology between other genotype 1a strains. From the determination of the entire genome sequence, a genotype 1a was assigned to the HCV isolate according to the classification of Simmonds et al. (See P Simmonds, K A Rose, S Graham, S W Chan, F McOmish, B C Dow, E A Follett, P L Yap and H Marsden, J. Clin. Microbiol., 31(6), 1493–1503 (1993)). […]

NS3/4A J4L6S strain = target: T2, NS3/4A J4L6S strain (Hepatitis C virus genotype 1b, UniProt O92972, C1454S/C1711G); experiment: Recombinant HCV NS3/4A protease complex FRET peptide assay, J4L6S strain; format: biochemical, HCV genotype 1b
T2 construct: DNA encoding the recombinant HCV NS3/4A protease complex (amino acids 1027 to 1711) for these strains; His tag (inferred from pET21b vector and Ni-NTA purification); made in house; host or cells: Escherichia coli BL21 (DE3)
From the text: as §1, §2, §3

[1] = test system: T3, human pancreatic chymotrypsin; experiment: Specificity assay, chymotrypsin; format: biochemical; details: 2 hr pre-incubation at RT
T3 construct: human pancreatic chymotrypsin
Procedure: (§4) The specificities of compounds of the present invention were determined against a variety of serine proteases: human sputum elastase (HS), porcine pancreatic elastase (PPE) and human pancreatic chymotrypsin and one cysteine protease: human liver cathepsin B. In all cases a 96-well plate format protocol using calorimetric p-nitroaniline (pNA) substrate specific for each enzyme was used as described previously (Patent WO 00/09543) with some modifications to the serine protease assays. All enzymes were purchased from Sigma while the substrates were from Bachem.
(§5) Each assay included a 2 hr enzyme-inhibitor pre-incubation at RT followed by addition of substrate and hydrolysis to ˜30% conversion as measured on a Spectramax Pro microplate reader. Compound concentrations varied from 100 to 0.4 μM depending on their potency. […]
(§6) The percentage of inhibition was calculated using the formula: [1-((UVinh−UVblank)/(UVctl−UVblank))]×100 […]

human liver cathepsin B = target: T4, human liver cathepsin B (Homo sapiens, UniProt P07858); experiment: Specificity assay, cathepsin B; format: biochemical; details: 2 hr pre-incubation at RT
T4 construct: purchased Sigma
Procedure: as §4, §5, §6

T2 sequence (O92972 1027-1711 C1454S/C1711G): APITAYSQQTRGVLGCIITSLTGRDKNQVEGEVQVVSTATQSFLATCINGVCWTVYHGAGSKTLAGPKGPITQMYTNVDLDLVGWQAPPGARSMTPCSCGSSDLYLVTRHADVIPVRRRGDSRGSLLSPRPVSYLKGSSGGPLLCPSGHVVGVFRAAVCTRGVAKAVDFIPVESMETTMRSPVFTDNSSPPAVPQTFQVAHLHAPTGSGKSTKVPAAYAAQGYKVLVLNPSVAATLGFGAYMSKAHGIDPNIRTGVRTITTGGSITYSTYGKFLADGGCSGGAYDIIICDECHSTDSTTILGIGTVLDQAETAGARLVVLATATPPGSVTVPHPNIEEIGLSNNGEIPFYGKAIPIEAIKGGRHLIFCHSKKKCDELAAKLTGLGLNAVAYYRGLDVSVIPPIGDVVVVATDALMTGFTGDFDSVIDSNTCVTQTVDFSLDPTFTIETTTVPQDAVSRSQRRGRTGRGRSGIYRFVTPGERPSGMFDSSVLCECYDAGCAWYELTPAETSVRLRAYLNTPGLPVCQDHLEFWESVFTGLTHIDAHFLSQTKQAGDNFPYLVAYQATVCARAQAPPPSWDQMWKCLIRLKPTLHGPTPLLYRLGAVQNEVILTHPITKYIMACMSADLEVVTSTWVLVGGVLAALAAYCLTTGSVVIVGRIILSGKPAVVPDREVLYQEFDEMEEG

SMILES: C=CC1C[C@]1(NC(=O)[C@@H]1C[C@@H](OC(=O)Nc2ccccc2-c2ccccc2)CN1C(=O)[C@@H](NC(=O)OC(C)(C)C)C(C)(C)C)C(=O)NS(=O)(=O)C1CC1 (stereo partly drawn) [Compound 8, BocNH-P3(t-BuGly)-P2(Hyp(O—CO(NH-biphen-2-yl)))-P1(1R,2S VinylAcca)—CONHSO2Cyclopropane]
- IC50 (NS3/4A BMS strain): 51 nM
- IC50 (NS3/4A J4L6S strain): 9.5 nM
- IC50 [1]: > 100000 nM
- IC50 (human liver cathepsin B): > 100000 nM

From patent US7041698B2, “Hepatitis C virus inhibitors” (Bristol-Myers Squibb Company, priority 2002, dated 2006)
